Experimental data as given in ChEMBL document CHEMBL1201862, “PubChem BioAssay data set” (2004).
The source made the active and inactive calls. For most assays here, no stated cut-off is given here; in the data, actives have a measured EC50 and inactives only a lower limit.

How the values were obtained:
[1] = biological target: T1, Replicative DNA helicase DnaB (Mycobacterium tuberculosis, UniProt P9WMR3); test: DnaB intein splicing inhibitors, dose response, biochemical, cell-free fluorescence (AID 449749); type: functional
T1 sequence (P9WMR3 whole entry): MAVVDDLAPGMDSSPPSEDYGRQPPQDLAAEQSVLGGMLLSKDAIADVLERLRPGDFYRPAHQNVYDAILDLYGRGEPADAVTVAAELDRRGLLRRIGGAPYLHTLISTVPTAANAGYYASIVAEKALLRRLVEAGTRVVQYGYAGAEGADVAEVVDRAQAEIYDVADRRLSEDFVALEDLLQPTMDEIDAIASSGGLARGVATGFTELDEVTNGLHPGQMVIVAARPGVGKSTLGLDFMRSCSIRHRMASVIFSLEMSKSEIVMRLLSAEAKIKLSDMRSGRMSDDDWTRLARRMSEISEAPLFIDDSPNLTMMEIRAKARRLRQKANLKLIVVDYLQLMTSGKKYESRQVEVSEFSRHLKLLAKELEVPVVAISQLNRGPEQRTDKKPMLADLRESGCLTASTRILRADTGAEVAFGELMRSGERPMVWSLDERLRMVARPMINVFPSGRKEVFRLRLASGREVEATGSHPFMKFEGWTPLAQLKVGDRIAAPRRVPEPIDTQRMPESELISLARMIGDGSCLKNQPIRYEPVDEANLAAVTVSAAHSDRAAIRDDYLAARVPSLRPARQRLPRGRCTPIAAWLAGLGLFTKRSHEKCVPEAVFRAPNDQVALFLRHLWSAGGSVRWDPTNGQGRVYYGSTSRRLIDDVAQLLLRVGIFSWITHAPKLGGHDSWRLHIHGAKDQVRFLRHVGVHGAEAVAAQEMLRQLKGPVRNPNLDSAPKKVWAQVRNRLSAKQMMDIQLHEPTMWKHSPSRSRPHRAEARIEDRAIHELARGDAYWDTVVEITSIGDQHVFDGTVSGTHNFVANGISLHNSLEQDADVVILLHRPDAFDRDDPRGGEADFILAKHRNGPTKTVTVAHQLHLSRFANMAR

Protein RecA = biological target: T2, Protein RecA (Mycobacterium tuberculosis, UniProt P9WHJ3); test: Fluorescence Cell-Free Homogeneous Dose Retest to Identify Inhibitors of RecA-Intein Splicing Activity. [Related pubchem assays (depositor defined):AID2097, AID2223, AID489010, AID492950]; type: functional
T2 sequence (P9WHJ3 whole entry): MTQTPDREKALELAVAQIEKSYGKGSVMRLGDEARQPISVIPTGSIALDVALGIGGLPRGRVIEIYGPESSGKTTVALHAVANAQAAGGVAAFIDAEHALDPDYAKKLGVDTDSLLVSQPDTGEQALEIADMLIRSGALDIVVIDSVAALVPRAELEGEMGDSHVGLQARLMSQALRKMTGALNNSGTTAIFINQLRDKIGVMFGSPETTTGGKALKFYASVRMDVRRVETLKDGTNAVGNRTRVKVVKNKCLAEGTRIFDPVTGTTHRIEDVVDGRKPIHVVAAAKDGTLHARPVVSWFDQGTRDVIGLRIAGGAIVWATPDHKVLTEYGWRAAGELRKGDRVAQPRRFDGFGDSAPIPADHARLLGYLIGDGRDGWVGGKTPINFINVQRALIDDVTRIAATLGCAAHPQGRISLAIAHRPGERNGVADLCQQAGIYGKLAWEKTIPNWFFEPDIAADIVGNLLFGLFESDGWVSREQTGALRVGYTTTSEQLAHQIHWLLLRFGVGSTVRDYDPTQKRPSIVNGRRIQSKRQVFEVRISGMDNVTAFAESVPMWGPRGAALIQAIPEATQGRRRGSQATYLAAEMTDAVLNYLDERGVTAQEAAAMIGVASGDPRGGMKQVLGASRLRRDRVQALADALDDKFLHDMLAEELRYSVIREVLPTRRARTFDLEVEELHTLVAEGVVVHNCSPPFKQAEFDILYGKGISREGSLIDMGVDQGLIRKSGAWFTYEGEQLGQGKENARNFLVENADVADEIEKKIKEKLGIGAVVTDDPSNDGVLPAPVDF

[2] = inhibitors of firefly luciferase expression or activity, dose response, H4 neuroglioma cells, luminescence (AID 1990); type: functional, cell-based
[3] = Luminescence Cell-Based Dose Response HTS to Identify Inhibitors of 5'UTR Stem-Loop Driven Prion Protein mRNA Translation in H4 Neuroglioblastoma Cells. [Related pubchem assays: 1827 (Project Summary), 1813 (Primary HTS)]; type: functional
[4] = inhibitors of SNCA 5'UTR-driven reporter translation, confirmation, H4 neuroglioma cells, luminescence (AID 1988); type: functional, cell-based
[5] = inhibitors of intracellular T. cruzi replication, confirmation, NIH3T3 host cells, beta-gal luminescence (AID 2044); type: functional, cell-based;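 further: intracellular parasites grown in NIH/3T3 mouse fibroblasts as host cells; luminescent beta-galactosidase reporter signal from transgenic T. cruzi replicating inside host cells; inhibitors lower the luminescence signal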
[6] = cytotoxicity toward NIH3T3 fibroblasts, dose response, counter-screen, cell-based, ATP luminescence, mouse fibroblasts (AID 2010); type: functional;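 further: cells exposed to compound for about 90 hours before reading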
[7] = Luminescence Cell-Based Dose Retest to Confirm Inhibitors of Cancer Stem Cells. [Related pubchem assays (depositor defined):AID2717, AID2721]; type: functional; conditions: Homo sapiens
Streptococcus = test: Group A Streptococcus viability loss, dose response, counter-screen for streptokinase expression inhibitor project, luminescence, BacTiterGlo (AID 1915); type: functional, organism-based;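 further: potency for reduction of bacterial viability or growth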
[8] = tested on: Streptococcus sp. 'group A'; test: growth inhibition of control SK(-) GAS strain, dose response, counter-screen for streptokinase expression inhibitor project, luminescence, kanamycin, BacTiterGlo, confirmation (AID 1900); type: functional, organism-based

## O=C(CCCN1C(=O)/C(=C\c2cccs2)SC1=S)Nc1ccc(O)cc1C(=O)O
[1]
  AC50: 17.7 µM (active)
Protein RecA
  EC50: 12.7 µM (active)

## O=C1c2ccccc2C(=O)C12Cc1ccccc1N1CCN(c3ccccc3)CC12 (configuration not stated)
[2]
  EC50: > 120 µM (not active)
[3]
  EC50: > 120 µM (not active)
[4]
  EC50: > 120 µM (not active)

## Nc1nc(NCCOCCO)nc(NC2CCCCC2)c1[N+](=O)[O-]
[2]
  EC50: 16.7 µM (active)
[3]
  EC50: 0.14 µM (active)
[4]
  EC50: 17.3 µM (active)

## CCOC(=O)c1sc2nc(CC(=O)OC)nc(N3CCN(c4ccc(OC)cc4)CC3)c2c1C
[5]
  EC50: 1.91 µM (active)
[2]
  EC50: > 120 µM (not active)
[3]
  EC50: > 120 µM (not active)
[4]
  EC50: 89.9 µM (active)
[6]
  EC50: > 60 µM (not active)

## COC(=O)Nc1nc(-c2ccccc2)c(C(=O)c2ccc(Cl)cc2)s1
[2]
  EC50: 7.45 µM (active)
[3]
  EC50: 7.87 µM (active)
[4]
  EC50: 0.179 µM (active)

## CC(C)[C@@H]1CC[C@@H](C)c2c1n[nH]c2-c1ccccc1
[7]
  AC50: 4.99 µM (active)

## Cc1ccc(Cl)cc1N1CCN(C(CC(C)C)c2nnnn2CC2CCCO2)CC1 (configuration not stated)
[7]
  AC50: 0.631 µM (active)

## Oc1nc(CN2CCN(c3ccccn3)CC2)nc2c(Br)cc(Br)cc12
[7]
  AC50: 2.76 µM (active)

## CCCc1n[nH]c2c1C(c1ccccc1OCC)C(C#N)=C(N)O2 (configuration not stated)
[1]
  AC50: 237 µM (active)
Protein RecA
  EC50: 9.01 µM (active)

## Cc1ccc(Nc2nc(N)c([N+](=O)[O-])c(NCc3ccco3)n2)cc1C
[7]
  AC50: 6.48 µM (active)

## C[C@@H]1CN([C@H](C)CO)C(=O)c2cc(NC(=O)Nc3ccc(C(F)(F)F)cc3)ccc2O[C@H]1CN(C)S(=O)(=O)c1ccc(Cl)cc1
[7]
  AC50: 2.71 µM (active)

## CC(=O)c1ccc(OC(=O)c2cccs2)cc1
[1]
  AC50: 24.3 µM (active)
Protein RecA
  EC50: 12.2 µM (active)

## Cn1cnc([N+](=O)[O-])c1Sc1ccc(C(C)(C)C)cc1
[1]
  AC50: 13.6 µM (active)
Protein RecA
  EC50: 14.1 µM (active)

## CCOC(=O)C(C#N)C(c1cccnc1)c1c(C)[nH][nH]c1=O (configuration not stated)
[1]
  AC50: 6.32 µM (active)
Protein RecA
  EC50: 1.81 µM (active)

## Nc1nc(NCc2ccco2)nc(Nc2ccc(F)cc2)c1[N+](=O)[O-]
[2]
  EC50: 35 µM (active)
[3]
  EC50: > 120 µM (not active)
[4]
  EC50: > 120 µM (not active)

## CCc1ccc(Nc2nc(N)nc(CSc3nc4ccccc4s3)n2)cc1
[7]
  AC50: > 195 µM (inactive)

## CC1CCc2cccc3c2N1c1cc(C#N)c(C#N)cc1O3 (configuration not stated)
[2]
  EC50: 8.54 µM (active)
[3]
  EC50: 88.7 µM (active)
[4]
  EC50: 33.4 µM (active)

## Cc1cc(N)n(-c2ccc(S(N)(=O)=O)cc2[N+](=O)[O-])n1
[7]
  AC50: > 195 µM (inactive)

## CC(=O)c1ccc(Oc2ncnc(N)c2[N+](=O)[O-])cc1
[2]
  EC50: > 120 µM (not active)
[3]
  EC50: 13.6 µM (active)
[4]
  EC50: 11.2 µM (active)

## Cc1n[nH]c2c1C(CC(C)C)C(C#N)=C(N)O2 (configuration not stated)
[1]
  AC50: 13.1 µM (active)
Protein RecA
  EC50: 3.84 µM (active)

## CCCc1nnc(NC(=O)c2c(O)c3cccc4c3n(c2=O)CCC4)s1
[2]
  EC50: 99.5 µM (active)
[3]
  EC50: > 120 µM (not active)
[4]
  EC50: > 120 µM (not active)
Streptococcus
  EC50: 3.1 µM (active)
[8]
  EC50: 2.53 µM (active)

## COc1ccc(-c2sc3ccc(N4CCOCC4)cc3c2C#CCCO)cc1
[7]
  AC50: 3 µM (active)

## COc1ccc(/C=C/c2cc(C(=O)O)c3ccccc3n2)cc1
[2]
  EC50: 3.67 µM (active)
[3]
  EC50: 2.83 µM (active)
[4]
  EC50: 6.45 µM (active)

## CCc1nnc(NC(=O)c2ccc(S(=O)(=O)N(C)Cc3ccccc3)cc2)o1
[2]
  EC50: > 120 µM (not active)
[3]
  EC50: > 120 µM (not active)
[4]
  EC50: > 120 µM (not active)

## N#Cc1nc(Cc2cccc3ccccc23)oc1N1CCCCC1
[2]
  EC50: 16.2 µM (active)
[3]
  EC50: > 120 µM (not active)
[4]
  EC50: > 120 µM (not active)
